Earlier results in patent US20220023282A1 (priority 2018, published 2022).

Tested on: Mycobacterium tuberculosis isolates
Settings: variety of Mycobacterium tuberculosis isolates, regardless of resistance to other anti-TB drugs; cited from earlier work

## COc1nc2ccc(Br)cc2cc1[C@@H](c1ccccc1)[C@@](O)(CCN(C)C)c1cccc2ccccc12 [bedaquiline, (1R,2S)-1-(6-bromo-2-methoxyquinolin-3-yl)-4-(dimethylamino)-2-(naphthalen-1-yl)-1-phenylbutan-2-ol]
  Minimum Inhibitory Concentration (MIC) 99: 0.01 to 0.1 µg/mL
